Laboratory results as given in paper PMC8305651 (International Journal of Molecular Sciences, 2021).

Target: wild-type PA-Nter (Influenza A virus, UniProt C3W5S0, DEL51-57/DEL61-72/E59G)
Assay type: biochemical, influenza A/California/07/2009 (H1N1)

SMILES: O=c1cc(-c2ccc(O)c(O)c2)oc2c([C@@H]3O[C@H](CO)[C@@H](O)[C@H](O)[C@H]3O)c(O)cc(O)c12 [orientin]
- inhibition of endonuclease activity, gel-based assay (qualitative): higher inhibitory potency than luteolin
